Columns and labels:
ABL1-phosphorylated = ABL1-phosphorylated (Homo sapiens, UniProt P00519); assay: Kinase panel: ABL1-phosphorylated; type: biochemical; conditions: 10 μM EP009
Method: (§1) Achieving JAK3 selectivity remains a significant challenge in the development of new small molecules for the treatment of cancer and immune-derived diseases. As such, the inventors employed cell-based screening assays of small-molecule libraries based upon the chemical scaffold of the established JAK3 inhibitor NC1153 (Stepkowski et al., J Immunol. (2005), 175(7):4236-4246) EP009 (FIG. 2A) was selected as a lead compound due to improved intrinsic stability (>95% purity in various solvents at 37° C. for 24 hours; FIG. 3) and high-degree of JAK3 selectivity. To test JAK3 versus JAK2 specificity of EP009, the IL-2/JAK3-dependent Kit225, and IL-3/JAK2-dependent BaF/3 cell lines were used. Kit225 and BaF/3 cells growing in the presence of IL-2 or IL-3, respectively, were treated with ascending concentrations of EP009 for 12 hours and cellular JAK3 and JAK2 tyrosine phosphorylation levels detected by Western blot analysis (FIGS. 2B and 2C). Following densitometric analysis, EP009 was determined to dose-dependently reduce IL-2-mediated JAK3 tyrosine phosphorylation with a cellular 50% inhibitory concentration (IC50) between 10 and 20 μM (FIG. 2B). […] To globally evaluate specificity, the inhibitory activity of EP009 was measured against a panel of protein kinases distributed throughout the kinome using the scanEDGE profiling service (KINOMEscan). […]

CREB = assay: Phospho-CREB in SU-DHL-1 cells (Luminex multiplex); type: cell-based, human; conditions: 24 hours
Method: FIGS. 8A-8F. Effect of EP009 on ALCL cells is mediated through selective activation of ERK1/2 and JNK1/2 stress signaling pathways, and inhibition of p70 S6 kinase growth signaling pathways. SU-DHL-1 cells were treated with vehicle (PBS) or increasing amounts of EP009 (0-50 μM) for 24 hours. Cells were then lysed, clarified, and subjected to Luminex multiplex analysis to detect phosphorylated (A) ERK1/2, (B) JNK1/2, (C) p70 S6 kinase, (D) IκBα, (E) CREB, and (F) p38. Values represent mean fluorescence intensity (MFI) normalized to corresponding GAPDH MFI, while error bars represent the standard deviation (n=2). Representative data from two independent experiments are shown. Statistical significance was determined using Student's t-test. (*, p<0.05).
The MILLIPLEX MAP 8-plex Multi-Pathway Signaling Phosphoprotein kit (Millipore) was used to detect phosphorylated ERK1/2 (Thr185/Tyr187), STAT3 (Ser727), JNK1/2 (Thr183/Tyr185), p70 S6 kinase (Thr412), IκBα (Ser32), STAT5A/B (Tyr694/699), CREB (Ser133), and p38 (Thr180/Tyr182). The MILLIPLEX MAP 5-plex STAT Phosphoprotein kit (Millipore) was used to detect phosphorylated STAT1 (Tyr701), STAT2 (Tyr690), STAT3 (Tyr705), STAT5A/B (Tyr694/699), and STAT6 (Tyr641). The MILLIPLEX MAP Human Apoptosis 3-plex kit (Millipore) was used to detect cleaved PARP, cleaved Caspase 3, and total GAPDH for protein normalization.

MKNK2 = MKNK2 (Homo sapiens, UniProt Q9HBH9); assay: Kinase panel: MKNK2; type: biochemical; conditions: 10 μM EP009
Method: as §1

MKNK1 = MKNK1 (Homo sapiens, UniProt Q9BUB5); assay: Kinase panel: MKNK1; type: biochemical; conditions: 10 μM EP009
Method: as §1

normal human naïve PBMCs = assay: Naive PBMC viability (MTS); type: cell-based; conditions: 72 hours, concentrations giving complete loss of JAK3-dependent cell viability (0-10 μM)
Method: FIGS. 2A-2F. Selective inhibition of JAK3 by EP009 results in loss of JAK3-dependent tumor cell line viability with no detectable off-target effects in key cell types. (A) Chemical structure of EP009 (M.W. 224.34). (B) Kit225 or (C) BaF/3 cells cultured in the presence of IL-2 or IL-3, respectively, were treated with vehicle (PBS; lane a) or increasing amounts of EP009 (0-50 μM; lanes b-h) for 12 hours. Cells were then lysed, clarified, and immunoprecipitated (IP) with anti-JAK3 (α-JAK3) or anti-JAK2 (α-JAK2), and subjected to Western blot (WB) analysis with anti-phosphotyrosine (α-pY). Blots were stripped and reprobed with corresponding antibody to verify equivalent protein loading. […] (E) Kit225 or BaF/3 cells were cultured with increasing amounts of EP009 (0-10 μM) for 72 hours and cell viability measured with the MTS tetrazolium salt assay. Values represent mean absorbance (OD490-OD650 nm) normalized to vehicle (PBS) treated control cells, while error bars represent the standard deviation (n=3). (F) HEK293, HEPG2, or naïve primary human PBMCs were cultured with increasing amounts of EP009 (0-10 μM) for 72 hours and cell viability measured with the MTS tetrazolium salt assay. Values represent mean absorbance (OD490-OD650 nm) normalized to vehicle (PBS) treated control cells, while error bars represent the standard deviation (n=3). […]

Sequence of MKNK2 (Q9HBH9 whole entry): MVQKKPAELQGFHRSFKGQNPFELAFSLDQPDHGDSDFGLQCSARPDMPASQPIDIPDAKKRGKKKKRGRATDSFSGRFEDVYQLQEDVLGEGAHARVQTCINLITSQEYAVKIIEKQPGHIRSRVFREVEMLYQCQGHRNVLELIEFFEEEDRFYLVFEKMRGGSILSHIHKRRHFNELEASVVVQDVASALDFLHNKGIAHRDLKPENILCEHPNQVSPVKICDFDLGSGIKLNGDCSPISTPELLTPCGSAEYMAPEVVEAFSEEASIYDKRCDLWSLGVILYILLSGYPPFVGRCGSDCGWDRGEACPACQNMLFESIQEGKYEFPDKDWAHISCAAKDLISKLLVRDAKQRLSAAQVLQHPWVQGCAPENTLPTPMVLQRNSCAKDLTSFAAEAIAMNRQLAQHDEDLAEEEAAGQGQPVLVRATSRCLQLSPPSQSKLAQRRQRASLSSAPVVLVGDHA
Sequence of ABL1-phosphorylated (P00519 whole entry): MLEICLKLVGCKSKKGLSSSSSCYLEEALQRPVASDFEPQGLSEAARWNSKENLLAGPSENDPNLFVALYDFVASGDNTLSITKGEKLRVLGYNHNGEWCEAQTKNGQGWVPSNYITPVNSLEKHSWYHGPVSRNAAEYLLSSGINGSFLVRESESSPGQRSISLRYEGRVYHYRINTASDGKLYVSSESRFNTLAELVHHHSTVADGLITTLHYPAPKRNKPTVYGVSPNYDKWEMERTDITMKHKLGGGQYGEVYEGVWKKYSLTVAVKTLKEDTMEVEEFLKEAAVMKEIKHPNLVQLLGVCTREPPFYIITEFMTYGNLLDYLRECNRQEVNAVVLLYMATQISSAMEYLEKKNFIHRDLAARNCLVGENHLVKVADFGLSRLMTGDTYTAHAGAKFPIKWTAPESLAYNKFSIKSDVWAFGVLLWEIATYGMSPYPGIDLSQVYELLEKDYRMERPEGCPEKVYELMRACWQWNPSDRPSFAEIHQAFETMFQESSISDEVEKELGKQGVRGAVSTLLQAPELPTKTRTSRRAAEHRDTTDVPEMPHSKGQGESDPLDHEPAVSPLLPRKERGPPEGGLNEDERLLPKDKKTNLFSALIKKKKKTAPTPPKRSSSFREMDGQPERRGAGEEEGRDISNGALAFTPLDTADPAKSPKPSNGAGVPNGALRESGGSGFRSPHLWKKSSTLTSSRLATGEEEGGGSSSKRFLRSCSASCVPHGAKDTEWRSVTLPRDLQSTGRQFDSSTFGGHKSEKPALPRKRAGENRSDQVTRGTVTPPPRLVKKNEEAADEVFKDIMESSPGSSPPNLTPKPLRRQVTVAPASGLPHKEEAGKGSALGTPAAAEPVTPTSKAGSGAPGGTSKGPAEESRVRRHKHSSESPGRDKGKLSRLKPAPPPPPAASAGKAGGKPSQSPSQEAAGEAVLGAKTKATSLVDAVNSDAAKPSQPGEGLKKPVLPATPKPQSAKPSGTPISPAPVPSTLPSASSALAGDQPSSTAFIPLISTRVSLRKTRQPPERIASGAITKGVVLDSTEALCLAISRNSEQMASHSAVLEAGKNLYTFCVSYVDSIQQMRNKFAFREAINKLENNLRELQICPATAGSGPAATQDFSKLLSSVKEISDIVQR
Sequence of MKNK1 (Q9BUB5 whole entry): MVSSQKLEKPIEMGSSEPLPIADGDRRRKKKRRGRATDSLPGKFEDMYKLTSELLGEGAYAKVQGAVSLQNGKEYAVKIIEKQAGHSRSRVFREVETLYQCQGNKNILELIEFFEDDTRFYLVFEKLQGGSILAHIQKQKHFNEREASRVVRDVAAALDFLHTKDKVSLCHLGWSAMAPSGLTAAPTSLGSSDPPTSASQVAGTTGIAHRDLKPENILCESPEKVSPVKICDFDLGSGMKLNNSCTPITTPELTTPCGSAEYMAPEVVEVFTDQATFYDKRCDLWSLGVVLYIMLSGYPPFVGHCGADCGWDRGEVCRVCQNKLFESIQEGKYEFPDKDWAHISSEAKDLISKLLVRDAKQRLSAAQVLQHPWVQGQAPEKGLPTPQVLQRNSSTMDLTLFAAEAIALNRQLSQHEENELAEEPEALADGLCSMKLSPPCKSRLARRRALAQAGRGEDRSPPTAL

## C=C1CCCCCCCCCC(CO)C1=O (centres unmarked) [EP009, 2-(Hydroxymethyl)-12-methylenecyclododecanone]
ABL1-phosphorylated
  Kinase Activity (% of Control): 100 % of Control
CREB
  CREB phosphorylation status: No statistically significant change
MKNK2
  Kinase Activity (% of Control): 100 % of Control
MKNK1
  Kinase Activity (% of Control): 100 % of Control
Normal human naïve PBMCs
  effect on normal human naïve PBMC viability: no detectable loss of cell viability
